Assay results taken from patent US9271943B2, “Arsenic compound solution and albumin nanoparticle and lyophilized preparation entrapping arsenic compound prepared using same” (ZHEJIANG CHINESE MEDICAL UNIVERSITY, priority 2011, dated 2016).

Key:
[1] = test system: human B lymphoma cell line Daudi cells; test: Trypan blue count of survival and dead Daudi cells; type: cell-based; conditions: for Death rate / the number of survival cells: Daudi cells
Method: (§1) Human lymphoma cell line cells are cultured in RPMI 1640 culture medium containing 10% new-born calf serum, placed in a 5% CO2 incubator, and cultured at 37° C. with saturated humidity. The medium is changed every 1-2 days. When the cells grow well, the drug is applied to the cells.
The growing well human B lymphoma cell line Daudi cells are cultured in a 24-well plate; each well is inoculated with 1 ml of the cell culture with a cell density of 1.5χ10^5/ml, and they are divided into experimental and control groups. […], the cells in each group are treated with the arsenic compound solution with respective concentration in terms of As2O3 added, for example, the cells in 0.8 μg/ml As2O3 group are treated with 0.8 μg/ml arsenic compound solution, and the arsenic compound solutions with different concentration are prepared by the following method: the arsenic compound solution obtained in Example 1 is first diluted with deionized water to 80 μg/ml, and then diluted to the desired concentration with 1640 culture fluid to obtain arsenic compound solutions with different concentration. The control group is added with a equal volume of culture fluid. The 24-well plate is placed in a 5% CO2 incubator, the cells are cultured at 37° C. and saturated humidity for a predetermined time, and then detected correspondingly. The cell suspensions are stained by physiological saline solution of 0.3% trypan blue for counting survival, dead cells; and the results are shown in Table 2: […]

[2] = test system: human T-cell lymphoma cell line jurkat cells; test: Trypan blue count of survival and dead jurkat cells; type: cell-based; conditions: for effect on proliferation / cell growth of jurkat cells: 0.2-0.8 μg/ml, 24, 48, 72 h; for Death rate / the number of survival cells / total number of the cells: jurkat cells
Method: as §1
The human T-cell lymphoma cell line jurkat cells in exponential growth phase are inoculated into a 24-well plate and cultured; 1 ml of jurkat cells with a cell density of 2χ10^5/ml are inoculated into each well, and the 24-well plate is placed in a 37° C., 5% CO2 incubator. Jurkat cells are treated with the arsenic compound solutions with different final As2O3 concentrations of 0, 0.2, 0.4, 0.8 μg/ml for 24, 48, 72 hours, and the arsenic compound solutions with different final As2O3 concentrations are prepared as follows: the arsenic compound solution obtained in Example 1 is first diluted with deionized water to 80 μg/ml, and then diluted to the desired concentration with 1640 culture fluid. The treated cell suspensions are stained with physiological saline solution of 0.3% trypan blue for determining survival, dead cell count, and the results shown in Table 3: […]

[3] = test system: human T-cell lymphoma cell line jurkat cells; test: Cell apoptosis by AnnexinV/PI double staining flow cytometry; type: cell-based; conditions: for Apoptotic rate / Early apoptotic rate / Early apoptotic rate + Apoptotic rate / Survival rate: jurkat cells, treated for 44 hours
Method: The human T-cell lymphoma cell line jurkat cells in exponential growth phase are inoculated into a 6-well plate and cultured; 3 ml of jurkat cells with a cell density of 2χ10^5/ml are inoculated into each well, and the 6-well plate is placed in a 37° C., 5% CO2 incubator. After being cultured for 4 hours, […], and the arsenic compound solutions with different final As2O3 concentrations are prepared as follows: the arsenic compound solution obtained in Example 1 is first diluted with deionized water to 80 μg/ml, and then diluted to the desired concentration with 1640 culture fluid. The control group is treated with an equivalent volume of 1640 culture fluid. After being treated for 44 hours, jurkat cells in the experimental and control groups with a cell density of 1χ10^6/ml are collected, and apoptosis is studied by AnnexinV/PI double staining flow cytometry.)
The cells in the experimental and control groups with a density of 1χ10^6 jurkat cells/ml are respectively collected, washed twice with PBS, and subjected to centrifugation at 1000 r/min for 5 min, and the supernatant is discarded. Each 100 μl of the cell suspension is mixed with 5 μL Annexin-V, and then mixed with 2 μL of propidium iodide (PI). The mixtures are incubated at room temperature and dark conditions for 15 min, then mixed with 400 μl of 1χAnnexin-V binding buffer after incubation, and placed in an ice water bath. Meanwhile, the flow cytometry instrument is subjected to regular correct, besides, the normal cells in the control group are collected to prepare positive control and negative control for dead cells and survival apoptotic cells to correct the instrument, so that the instrument has more precise control threshold for different characteristic samples. Then, the stained cells were detected by flow cytometry; and similar results are obtained by experiment repeated: […]

[4] = test system: human T cell lymphoma cell line jurkat cells; test: Detection of apoptotic bodies by light microscopy; type: cell-based; conditions: 0.8 μg/ml As2O3, 24 h, FIG. 12B
Method: Human B lymphoma cell line Daudi cells and human T lymphoma cell line jurkat cells in the control group and As2O3-treated group ([…]) which have been cultured for 24 h are collected to prepare smears, Wright-Giemsa stained, and observed under a light microscope to determine the morphological changes of cells.
1) apoptotic bodies: human B lymphoma cell line Daudi cells and human T-cell lymphoma cell line jurkat cells in the control group and in the As2O3-treated group which have been cultured or treated for 24 h are collected to prepare smears, subjected to the detection of apoptotic bodies and photographed. The results are shown in FIGS. 12A and 12B; FIG. 12A is a light microscopy image of apoptotic bodies of human T cell lymphoma cell line jurkat cells in the control group; and FIG. 12B is a light microscopy image of apoptotic bodies of human T cell lymphoma cell line jurkat cells treated with […] As2O3, and the […] As2O3 is prepared as follows: the arsenic compound solution obtained in Example 1 is first diluted with deionized water to 80 μg/ml, and then diluted to […] with 1640 culture fluid.

[5] = test system: human T lymphoma cell lines jurkat cell; test: Mitochondrial membrane potential, JC-1 fluorescent probe; type: cell-based
Excerpt: Beyotime mitochondrial membrane potential detection kit (JC-1) is used; after the cells have been labeled with the fluorescent probe, they can be observed with a fluorescence microscope using conventional settings for observing red and green fluorescence, and photographed.
Measurement principle: The JC-1 fluorescent probe is used to detect mitochondrial potential; when the mitochondrial membrane potential is high, JC-1 aggregates in the mitochondrial matrix to form a polymer, which can produce red fluorescence; when the mitochondrial membrane potential is low, JC-1 can not aggregate in the mitochondrial matrix or the aggregation decreases, in this case, JC-1 exists in monomeric form and generates green fluorescence.
100 μl of suspension cultured cell liquid is centrifugalized and washed to obtain a sample. The sample is made into smears and observed by fluorescence microscopy, and three pictures are taken respectively by using conventional filter, red fluorescence, and green fluorescence sets in the same field of view. […]

[6] = test system: human malignant B cell lymphoma cell line Raji cells; conditions: Raji cells 2.0×10^5/ml, 0.5˜2.0 μmol/L As2O3, 24, 48, 72 hours; cited from earlier work
[7] = test system: human T-cell lymphoma cell line jurkat cells; conditions: jurkat cells 2.0×10^5/ml, As2O3 0.5, 1.0, 2.0, 4.0 μmol/L; cited from earlier work

## arsenic trioxide [As2O3]
[1]; 0.1-0.8 μg/ml, 20 h and 68 h, dose dependence
  effect on cell viability and growth of Daudi cells: significantly reduce the cell viability
[1]; As2O3 0.1 μg/ml, 20 h
  Death rate: 33%
  the number of survival cells: 1.40 10^5/ml
[1]; As2O3 0.1 μg/ml, 68 h
  Death rate: 66%
  the number of survival cells: 1.24 10^5/ml
[1]; As2O3 0.2 μg/ml, 20 h
  Death rate: 44%
  the number of survival cells: 1.27 10^5/ml
[1]; As2O3 0.2 μg/ml, 68 h
  Death rate: 75%
  the number of survival cells: 0.77 10^5/ml
[1]; As2O3 0.4 μg/ml, 20 h
  Death rate: 56%
  the number of survival cells: 0.99 10^5/ml
[1]; As2O3 0.4 μg/ml, 68 h
  Death rate: 88%
  the number of survival cells: 0.30 10^5/ml
[1]; As2O3 0.8 μg/ml, 20 h
  Death rate: 68%
  the number of survival cells: 0.58 10^5/ml
[1]; As2O3 0.8 μg/ml, 68 h
  Death rate: 98%
  the number of survival cells: 0.06 10^5/ml
[1]; comparison of Table 2 with Table 3
  sensitivity of Daudi cells to As2O3-induced cell death relative to jurkat cells: more sensitive
[2]
  effect on proliferation / cell growth of jurkat cells: can inhibit cell growth
[2]; listed as arsenic compound
  effect on proliferation / cell growth of jurkat cells: significant inhibitory effect
[2]; As2O3 0.2 μg/ml, 24 h
  Death rate: 5.2%
  the number of survival cells: 7.56 10^5/ml
  total number of the cells: 7.98 10^5/ml
[2]; As2O3 0.2 μg/ml, 48 h
  Death rate: 16%
  the number of survival cells: 10.29 10^5/ml
  total number of the cells: 12.18 10^5/ml
[2]; As2O3 0.2 μg/ml, 72 h
  Death rate: 46.1%
  the number of survival cells: 4.95 10^5/ml
  total number of the cells: 9.19 10^5/ml
[2]; As2O3 0.4 μg/ml, 24 h
  Death rate: 25.9%
  the number of survival cells: 4.87 10^5/ml
  total number of the cells: 6.57 10^5/ml
[2]; As2O3 0.4 μg/ml, 48 h
  Death rate: 34%
  the number of survival cells: 5.12 10^5/ml
  total number of the cells: 7.73 10^5/ml
[2]; As2O3 0.4 μg/ml, 72 h
  Death rate: 50.9%
  the number of survival cells: 3.66 10^5/ml
  total number of the cells: 7.45 10^5/ml
[2]; As2O3 0.8 μg/ml, 24 h
  Death rate: 47.3%
  the number of survival cells: 2.92 10^5/ml
  total number of the cells: 5.53 10^5/ml
[2]; As2O3 0.8 μg/ml, 48 h
  Death rate: 55%
  the number of survival cells: 2.5 10^5/ml
  total number of the cells: 5.61 10^5/ml
[2]; As2O3 0.8 μg/ml, 72 h
  Death rate: 69.7%
  the number of survival cells: 1.84 10^5/ml
  total number of the cells: 6.08 10^5/ml
[3]; R=0.997 (P<0.01), dose-dependent
  relation of jurkat cell apoptotic rate to concentration: positively correlated with the concentration
[3]; As2O3 0.2 μg/ml
  Apoptotic rate: 0.7%
  Early apoptotic rate: 6.5%
  Early apoptotic rate + Apoptotic rate: 7.2%
  Survival rate: 92.8%
[3]; As2O3 0.4 μg/ml
  Apoptotic rate: 1.4%
  Early apoptotic rate: 14.1%
  Early apoptotic rate + Apoptotic rate: 15.5%
  Survival rate: 84.5%
[3]; As2O3 0.8 μg/ml
  Apoptotic rate: 5.0%
  Early apoptotic rate: 26.1%
  Early apoptotic rate + Apoptotic rate: 31.0%
  Survival rate: 69.0%
[3]; As2O3 1.6 μg/ml
  Apoptotic rate: 15.8%
  Early apoptotic rate: 50.8%
  Early apoptotic rate + Apoptotic rate: 66.6%
  Survival rate: 33.4%
[4]
  morphological changes, apoptotic bodies: nuclear fragmentation, cellular debris and apoptotic bodies appear
[5]; 0.4 μg/m As2O3 treated group compared with control group
  number of the cells and red fluorescence intensity of JC-1 in the mitochondria: have decreased significantly
[5]; 0.8 As2O3 treated group compared with 0.4 μg/m group
  number of the cells and red fluorescence intensity of JC-1 in the cells: have also decreased significantly
[6]
  effect on cell growth (number of active cells): inhibited cell growth in a dose dependent manner
[7]
  effect on cell growth: did not inhibit cell growth
